The target of assay [1] is Bcr/Abl fusion protein (Homo sapiens, UniProt P00519). Type of assay: protein assay.
Description: Inhibition of wild type human BCR-ABL1 using Tyr2 peptide as substrate incubated for 1 hrs by FRET based Z-LYTE assay
Assay [2] concerns K562. Description: Antiproliferative activity against human K562 cells assessed as inhibition of cell growth incubated for 3 days by celltiter-glo 2.0 assay. Type of assay: functional, cell-based. The conditions noted are these: K562, 72 h. In general terms: Cellular ATP, detected with luciferase, serves as a proxy for viable cell number.
Assay [3] concerns K562. Put plainly: Antiproliferative activity against human K562 cells expressing ABL T315I mutant assessed as inhibition of cell growth incubated for 3 days by celltiter-glo 2.0 assay. The note with it: K562, 72 h. Type of assay: functional, cell-based.
For assay [4], the target named is Bcr/Abl fusion protein (Homo sapiens, UniProt P00519, T315I). Put plainly: Inhibition of human BCR-ABL1 T315I mutant using Tyr2 peptide as substrate incubated for 1 hrs by FRET based Z-LYTE assay. Type of assay: protein assay.
The test system of assay [5] is K562. Put plainly: cells. The conditions noted are these: Homo sapiens, K562, 72 h.
For assay [6], the system named is K562. Description: cells. The conditions noted are these: Homo sapiens, K562, 72 h. This is another data set of the same source.

A value given as a limit tells only on which side of the number the result lay.

Regarding `Cc1ccc(C(=O)Nc2ccc(CN3CCN(C(=O)CCOCCOCCOCCOCCOCCOCCOCCOCCOCCOCCOCCOCCOCCOCCOCCOCCOCCOCCOCCOCCOCCOCCOCCOCCNC(=O)C4CCN(c5ncc(C(=O)Nc6ccc(OC(F)(F)Cl)cc6)cc5-c5ccn[nH]5)CC4)CC3)c(C(F)(F)F)c2)cc1C#Cc1cnc2cccnn12`, the EC50 (as a rule, the concentration needed to bring the measured effect to its halfway point) is 3.57 nM in assay [1], 0.87 nM in assay [2], 26.3 nM in assay [3] and 64 nM in assay [4].
For `Cc1nc(Nc2ncc(C(=O)Nc3c(C)cccc3Cl)s2)cc(N2CCN(C(=O)CCOCCOCCOCCOCCOCCOCCOCCOCCOCCOCCOCCOCCNC(=O)C3CCN(c4ncc(C(=O)Nc5ccc(OC(F)(F)Cl)cc5)cc4-c4ccn[nH]4)CC3)CC2)n1`, the EC50 in assay [1] is 0.44 nM; in assay [2], 2.47 nM; in assay [3], above 300 nM; in assay [4] it was 7.23 nM.
The corresponding values for `Cc1nc(Nc2ncc(C(=O)Nc3c(C)cccc3Cl)s2)cc(N2CCN(C(=O)CCOCCOCCOCCOCCOCCOCCOCCOCCOCCOCCNC(=O)C3CCN(c4ncc(C(=O)Nc5ccc(OC(F)(F)Cl)cc5)cc4-c4ccn[nH]4)CC3)CC2)n1` are 0.8 nM, 2.49 nM, above 300 nM and 23.8 nM.
Consider `Cc1nc(Nc2ncc(C(=O)Nc3c(C)cccc3Cl)s2)cc(N2CCN(CCO)CC2)n1` [DASATINIB], for which the EC50 in assay [5] amounted to 12 nM; in assay [6], 0.26 nM.
